Measured values taken from US11976042B1, “9-(5-bromo-2-hydroxyphenyl)-10-[3-(dimethylamino)propyl]-3,4,6,7,9,10-hexahydroacridine-1,8(2H,5H)-dione as an antimicrobial compound” (KING FAISAL UNIVERSITY, priority 2023, dated 2024).

Experiments:
Experiment in all cases: antimicrobial activity by agar dilution
Format in all cases: cell-based
Settings in all cases: after 10, 20, 40 and 60 minutes at all dilutions 1:100 to 1:800
E. Coli = tested on: E. Coli
Protocol: (§1) The antimicrobial properties of the synthesized compound 9-(5-bromo-2-hydroxyphenyl)-10-[3-(dimethylamino)propyl]-3,4,6,7,9,10-hexahydroacridine-1,8(2H,5H)-dione were studied by the method of agar dilution. Test solutions of each compound were prepared in a concentration of 1% using dimethylformamide as a solvent. Then they were diluted in a physiological solution to obtain the final experimental dilutions 1:100, 1:200, 1:400, and 1:800. The effect of these substances were compared with furacillin in a controllable study. The testing microbes used were gram positive bacteria St. Aereus, gram negative bacteria E. Coli and Ps. Aeruginosa, and Candida albicans fungi. The experiments used for this survey were meat-pentonlu agar (EPA) for cultivation of bacteria and Saburo environment for fungi. Each experiment used 1 ml of test solution on each plate 500 min. Add 2 drops of emulsified with microbes feel. All experimental samples were taken from the agar after 10, 20, 40, 60 minutes in the environment on the basis of Patrk planted. Bacteria were cultivated at a temperature of 37° C. for 1 day and the mushroom was kept in a thermostat for […] at a temperature of 28° C. Then the results were checked.

Candida albicans = tested on: Candida albicans
Protocol: as §1

Ps. Aeruginosa = tested on: Ps. Aeruginosa
Protocol: as §1

St. Aereus = tested on: St. Aereus
Protocol: as §1

Measured: inhibition activity

CN(C)CCCN1C2=C(C(=O)CCC2)C(c2cc(Br)ccc2O)C2=C1CCCC2=O [9-(5-bromo-2-hydroxyphenyl)-10-[3-(dimethylamino)propyl]-3,4,6,7,9,10-hexahydroacridine-1,8(2H,5H)-dione]
highest inhibition activity: E. Coli | Candida albicans | Ps. Aeruginosa | St. Aereus
